Laboratory results taken from PubChem BioAssay AID2060908 (Molecular Pharmacology Branch, DTP, NCI, 2025).

System: 186277-243-T-J2-PDC complex spheroids, viability
Assay: Anticancer human tumor 186277-243-T-J2-PDC patient-derived colon adenocarcinoma cell line growth inhibition [RAS]
Details: for viability, T/C: stronger effect = lower value
Source text: RAS pathway inhibitors in Combinations in Complex Spheroids
A high-throughput screen of multi-cell type tumor spheroids was designed to identify active combinations of RAS pathway inhibitors and targeted small molecules. Complex spheroids include a stromal component modeled by human endothelial cells (HUVEC) and fibroblasts modeled by human mesenchymal stem cells (MSCs). The concentration ranges selected for each drug and investigational agent were based upon clinically achievable concentrations if the clinical Cmax of the agent was known.
Compounds. The drugs and investigational agents: abemaciclib (NSC768073), cobimetinib (NSC768068), divarasib (GDC6063, NSC841802), docetaxel (NSC628503), GDC-1971 (RLY-1971, NSC841576), gemcitabine (NSC613327), inavolisib (NSC800729), ipatasertib (NSC767898), KB-0742 (NSC834161), MRTX-1133 (NSC836407), osimertinib (NSC779217), RMC-4630 (NSC839698), RMC-6236 (NSC851965), RMC-6291 (NSC852671), Ro-3306 (NSC812927), sapanisertib (NSC764658), SN-38 (NSC673596), staurosporine (NSC755774), SY5609 (NSC837396), and tovorafenib (DAY101, NSC766906), were obtained from the National Cancer Institute (NCI) Developmental Therapeutics Program Chemical Repository. The FDA-approved anticancer drug set is available from the NCI Developmental Therapeutics Program. […] The stock solutions were prepared in dimethyl sulfoxide (DMSO, Sigma-Aldrich, St. Louis, MO, cat. D2650) at 800-fold the tested concentration and stored at -70 degrees C prior to their use. All drugs and investigational agents were tested over a range starting from a high concentration at or near the clinical Cmax and decreasing in half-log increments. If the clinical Cmax for an agent had not been determined, the highest concentration tested was 10 microM.
Cell Culture. All cells were maintained in an incubator at 37 degrees C and 5% CO2 with 95% humidity. The PDC lines were cultured according to standard operating procedures established by the NCI PDMR. All PDCs were thawed and cultured in Matrigel-coated flasks prepared with a working solution of 1X Ham's F-12 nutrient mix, without supplementation (Invitrogen, Waltham, MA, cat. 11765054), 100 U/mL penicillin-streptomycin (Invitrogen, cat. 15140122), and 2.5% Matrigel (Corning Inc., Corning, NY, cat. 354248) for the first three passages. The 362531-283-R-J2-PDC and 782815-120-R-J1-PDC lines were cultured in 6C/Colon 1B media, which includes advanced DMEM/F-12 (Thermo Fisher Scientific, cat. 12634028), 10 mM HEPES (Thermo Fisher Scientific, cat. 15630080), 1X GlutaMAX supplement (Thermo Fisher Scientific, cat. 35050061), 0.1 mg/mL primocin (InvivoGen, San Diego, CA, cat. ant-pm-2), 10% defined fetal bovine serum, heat inactivated (HyClone Laboratories Inc., Logan, UT, cat. SH30070.03HI), 50% L-WRN conditioned media (ATCC, cat. CRL-3276), 1.25 mM N-Acetyl-L-cysteine (Sigma-Aldrich, cat. A9165), 10 mM nicotinamide (Sigma-Aldrich, cat. N0636), 1X B-27 supplement (Thermo Fisher Scientific, cat. 17504044), 1X N-2 supplement (Thermo Fisher Scientific, cat. 17502048), 50 ng/mL human EGF (Thermo Fisher Scientific, cat. PHG0311), and 10 microM Y-27632 dihydrochloride (Tocris Bioscience, cat. 1254). The K12877-001-R-J1-PDC line was cultured in 6I media, which includes all 6C/Colon 1B media plus 10 ng/mL human FGF-10 (PeproTech, cat. 100-26), 1 ng/mL human FGF-2 (PeproTech, cat. 100-18B), 1 µM prostaglandin E2 (Tocris Bioscience, cat. 2296), […] hydrocortisone (Sigma-Aldrich, cat. H4001), and […] bovine insulin (Sigma-Aldrich, cat. I6634). The K86415-001-R-J1-PDC line was cultured in 6D media, which includes all 6C/Colon 1B media components minus the L-WRN conditioned media. The 485176-168-R4-J1-PDC was cultured in PANC media, which includes all 6C/Colon 1B media plus 100 ng/mL human FGF-10 (PeproTech, cat. 100-26), 500 nM SB-431542 (Selleckchem, cat. S1067), and 10 nM gastrin (Tocris Bioscience, cat. 3006). […]
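Note: spheroids exposed to compounds for 7 days before viability read.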

CCn1c(-c2cccnc2C(C)OC)c2c3cc(ccc31)N1CCOC(CC(NC(=O)C(C(C)C)N(C)C(=O)C3(F)CCN(C(=O)C#CC(C)(C)N(C)C)CC3)C(=O)N3CCCC(N3)C(=O)OCC(C)(C)C2)C1 (centres undefined)
viability, T/C (compound 0.000949 µM): 96.7% [middle of 8 runs] | viability, T/C (compound 0.003 µM): 96.3% [middle of 8 runs] | viability, T/C (compound 0.03 µM): 102% [middle of 8 runs] | viability, T/C (compound 0.3 µM): 103% [middle of 8 runs] | IC50 (compound alone, run of 05/20/2024): > 300 nM

CCC(CC)c1cc(NC2CCC(N)C2)n2nccc2n1 (centres undefined)
viability, T/C (compound 0.0316 µM): 98.2% [middle of 4 runs] | viability, T/C (compound 0.1 µM): 94.7% [middle of 4 runs] | viability, T/C (compound 0.316 µM): 90.1% [middle of 4 runs] | viability, T/C (compound 1 µM): 91.8% [middle of 4 runs] | viability, T/C (compound 3.16 µM): 5.37% [middle of 4 runs] | viability, T/C (compound 10 µM): 0.37% [middle of 4 runs] | IC50 (curve of compound): 1.77 µM [middle of 4 runs]

O=C(c1ccc(F)c(F)c1Nc1ccc(I)cc1F)N1CC(O)([C@@H]2CCCCN2)C1 + CCn1c(-c2cccnc2C(C)OC)c2c3cc(ccc31)N1CCOC(CC(NC(=O)C(C(C)C)N(C)C(=O)C3(F)CCN(C(=O)C#CC(C)(C)N(C)C)CC3)C(=O)N3CCCC(N3)C(=O)OCC(C)(C)C2)C1
IC50 (curve of first compound, second compound 0.000949 µM): 96.5 nM | IC50 (curve of first compound, second compound 0.003 µM): 91.5 nM | IC50 (curve of first compound, second compound 0.00949 µM): 86.5 nM | IC50 (curve of first compound, second compound 0.03 µM): 90.9 nM | IC50 (curve of first compound, second compound 0.0949 µM): 74.2 nM | IC50 (curve of first compound, second compound 0.3 µM): 54 nM | viability, T/C (second compound 0.000949 µM, first compound 0.00316 µM): 98.9% | viability, T/C (second compound 0.000949 µM, first compound 0.01 µM): 102% | viability, T/C (second compound 0.000949 µM, first compound 0.0316 µM): 99.6% | viability, T/C (second compound 0.000949 µM, first compound 0.1 µM): 48.2% | viability, T/C (second compound 0.000949 µM, first compound 0.316 µM): 9.52% | viability, T/C (second compound 0.000949 µM, first compound 1 µM): 4.41% | viability, T/C (second compound 0.003 µM, first compound 0.00316 µM): 82.9% | viability, T/C (second compound 0.003 µM, first compound 0.01 µM): 94.6% | viability, T/C (second compound 0.003 µM, first compound 0.0316 µM): 87.5% | viability, T/C (second compound 0.003 µM, first compound 0.1 µM): 46.5% | viability, T/C (second compound 0.003 µM, first compound 0.316 µM): 10.4% | viability, T/C (second compound 0.003 µM, first compound 1 µM): 3.64% | viability, T/C (second compound 0.00949 µM, first compound 0.00316 µM): 91.7% | viability, T/C (second compound 0.00949 µM, first compound 0.01 µM): 105% | viability, T/C (second compound 0.00949 µM, first compound 0.0316 µM): 89.4% | viability, T/C (second compound 0.00949 µM, first compound 0.1 µM): 44.2% | viability, T/C (second compound 0.00949 µM, first compound 0.316 µM): 9.08% | viability, T/C (second compound 0.00949 µM, first compound 1 µM): 4.42% | viability, T/C (second compound 0.03 µM, first compound 0.00316 µM): 100% | viability, T/C (second compound 0.03 µM, first compound 0.01 µM): 93.9% | viability, T/C (second compound 0.03 µM, first compound 0.0316 µM): 98.9% | viability, T/C (second compound 0.03 µM, first compound 0.1 µM): 45.7% | viability, T/C (second compound 0.03 µM, first compound 0.316 µM): 9.74% | viability, T/C (second compound 0.03 µM, first compound 1 µM): 4.04% | viability, T/C (second compound 0.0949 µM, first compound 0.00316 µM): 121% | viability, T/C (second compound 0.0949 µM, first compound 0.01 µM): 114% | viability, T/C (second compound 0.0949 µM, first compound 0.0316 µM): 86.9% | viability, T/C (second compound 0.0949 µM, first compound 0.1 µM): 37.3% | viability, T/C (second compound 0.0949 µM, first compound 0.316 µM): 9.15% | viability, T/C (second compound 0.0949 µM, first compound 1 µM): 3.51% | viability, T/C (second compound 0.3 µM, first compound 0.00316 µM): 119% | viability, T/C (second compound 0.3 µM, first compound 0.01 µM): 101% | viability, T/C (second compound 0.3 µM, first compound 0.0316 µM): 72.7% | viability, T/C (second compound 0.3 µM, first compound 0.1 µM): 25.3% | viability, T/C (second compound 0.3 µM, first compound 0.316 µM): 6.5% | viability, T/C (second compound 0.3 µM, first compound 1 µM): 2.7%
